Read-outs that look alike come from different tables or passages of the source.
How the values were obtained:
TIL = experiment: AKT inhibition during ex vivo TIL expansion (REP); assay type: cell-based
Description: Patient tumors from different indications were received, fragmented, and subjected to an expansion protocol for TIL manufacturing. Different doses (0.3 μM and 1 μM) of the pan-AKT inhibitor (AKTi) ipatasertib were added to the culture during ex vivo expansion. The expansion potential, as well as the phenotypic and functional characteristics of TIL were evaluated on the final TIL product.

TILs [1] = test system: TILs
Description: This Example describes the evaluation of the effects of IL-21 (10 ng/ml)+ AZD5363 in combination with increasing doses of IL-2 or IL-15 and evaluation of the overall impact on preventing effector differentiation, promoting more stem-like attributes and improving functionality of TILs during REP. The overarching goal of these experiments is to examine the growth conditions during the whole expansion process of TILs to augment their stem-like attributes while improving their functional and phenotypic characteristics.
Frozen pre-REP TILs were thawed and REPed under different conditions in 24-well GREX plates. Cytokines were given twice (Day 0 and Day 5 of pre-REP). Pre-REP TILs from 3 different indications were thawed and REPped in a G-REX 24 well plate. The following conditions were included in the REP protocol used in 24-well G-Rex plates: • 1) Feeder:TIL ratio 250:1 with 5 million feeders and 20,000 TILs per well, OKT3 at 30 ng/mL, • 2) On day 0 the REP is initiated with 3 mL of CM2 with cytokines and compounds, • 3) On day five 5 mL of CM4 media was added to each well, • 4) All cytokines and compounds are added twice on day 0 and day 5. The following conditions were tested: IL-2 3000 IU/mL, IL-2 2000 IU/mL, IL-2 1000 IU/mL, IL-2 3000 IU/mL+IL-21 10 ng/ml, IL-2 2000 IU/mL+IL-21 10 ng/ml, IL-2 1000 IU/mL+IL-21 10 ng/ml, IL-2 3000 IU/mL+IL-21 10 ng/ml+2 uM AZD5363 (added once), IL-2 2000 IU/mL+IL-21 10 ng/ml+2 uM AZD5363 (added once), IL-2 1000 IU/mL+IL-21 10 ng/ml+2 uM AZD5363 (added once), and IL-15 10 ng/ml+IL-21 10 ng/ml+1 uM AZD5363 (added twice).

KILR® THP-1 cells = experiment: TIL cytotoxicity in coculture with KILR THP-1 cells; assay type: cell-based; conditions: 24 hrs coculture, 10:1, Invigo-T process
Description: TILs were then tested for cytotoxicity in an allogeneic environment after coculture for 24 hrs with KILR® THP-1 cells at a 10:1 effector-to-target cell. […] TILs were next stimulated every 3 days with TransAct followed by coculture for 24 hrs with KILR® THP-1 cells before being assessed for cytotoxicity and IFNg expression (as measured byflow cytometry staining).

TILs [2] = experiment: Evaluation of I-TIL process conditions (pre-REP and REP, 18 tumors); assay type: cell-based
Description: Tumors (N=18) were received and processed for both pre-REP and REP expansion to test and select a preferred set of conditions, nominated as the final I-TIL (invigorated TIL) conditions.
Cytokines were added twice on Day 0 and Day 5 of pre-REP.
Pre-REP cells were then frozen until all pre-REP samples were generated in order to initiate the REP together at the same time. Frozen pre-REP TILs were thawed and rested overnight in their corresponding conditions followed by REP in 24-well G-Rex plates. […] Cytokines were added twice on Day 0 and Day 5 and AZD5363 was only added once on Day 0 of REP.

TILs [3] = conditions: 1 or 2 uM given once or twice, with IL-2 1000 IU/ml + IL-21 10 ng/ml
Source text: (§1) The overarching goal of these experiments is to examine the growth conditions during the whole expansion process of TILs to augment their stem-like attributes while improving their functional and phenotypic characteristics.
Frozen pre-REP TILs were thawed and REPed under different conditions in 24-well GREX plates. […] Pre-REP TILs from 3 different indications were thawed and REPped in a G-REX 24 well plate. The following conditions were included in the REP protocol used in 24-well G-Rex plates: • 1) Feeder:TIL ratio 250:1 with 5 million feeders and 20,000 TILs per well, OKT3 at 30 ng/mL, • 2) On day 0 the REP is initiated with 3 mL of CM2 with cytokines and compounds, • 3) On day five 5 mL of CM4 media was added to each well, • 4) All cytokines and compounds are added twice on day 0 and day 5.

TILs [4] = test system: TILs; remark: listed apart in the source
Source text: as §1
Pre-REP TILs from 3 different indications were thawed and REPped in a G-REX 24 well plate. Cytokines were given twice (Day 0 and Day 5 of pre-REP). The following conditions were included in the REP protocol used in 24-well G-Rex plates: • 1) Feeder:TIL ratio 250:1 with 5 million feeders and 20,000 TILs per well, OKT3 at 30 ng/mL, • 2) On day 0 the REP is initiated with 3 mL of CM2 with cytokines and compounds, • 3) On day five 5 mL of CM4 media was added to each well, • 4) All cytokines and compounds are added twice on day 0 and day 5.

[5] = AKTi treatment during ex vivo expansion
[6] = with IL-15 10 ng/ml + IL-21 10 ng/ml

## CC(C)NC[C@@H](C(=O)N1CCN(c2ncnc3c2[C@H](C)C[C@H]3O)CC1)c1ccc(Cl)cc1 [AKTi, ipatasertib]
TIL; 1 μM dose, relative to control
  expansion and viability of TIL: equivalent
TIL; 1 μM dose, relative to control, present even after re-stimulation
  population of less differentiated CD39−CD69− cells: doubled
TIL; [5]
  cytotoxicity of TIL: increased cytotoxicity
  frequency of IFNγ+TNFα+CD8+ T cells: increase
TIL; CD39−CD69− cells after re-stimulation
  expression of CD38 and transcription factors T-bet and Tox: reduced expression

## AZD5363
TILs [1]; 2 uM given once, with IL-2 1000 IU/ml + IL-21 10 ng/ml
  effector differentiation, stem-like phenotype, functional responses, inhibitory receptor expression: induces many of the desired changes
TILs [1]; IL-15 combination
  activation state of TILs: further reduced
TILs [1]; [6]
  effects on cytokine production, in particular IL-2: quite significant
TILs [1]; with IL-15 10 ng/ml + IL-21 10 ng/ml, vs IL-2 combination
  same effects with IL-15 instead of IL-2: comparable
KILR® THP-1 cells
  cytotoxicity with or without AZD5363: no significant difference
TILs [2]; 2 uM once on Day 0 of REP, with IL-15 10 ng/ml + IL-21 10 ng/ml
  effector differentiation, stem-like phenotype, functional responses, inhibitory receptor expression: induces many of the desired changes
TILs [2]; with IL-15 + IL-21, vs IL-2 1000 IU/ml + IL-21 10 ng/ml + AZD5363
  effects on increasing IFNg, TNFa and IL-2: more pronounced
TILs [3]
  phenotypic changes on TILs (inhibitory receptors, activation, stem-like qualities, functionality): further beneficial phenotypic changes
TILs [4]; [6]
  effector differentiation, stem-like phenotype, functional responses, inhibitory receptor expression: induces many of the desired changes
TILs [4]; with IL-15 + IL-21, vs IL-2 1000 IU/ml and IL-21 10 ng/ml
  effects on increasing IFNg, TNFa and IL-2: more pronounced

## IL-15: cytokine used at 10 ng/ml with IL-21 during REP
TILs [2]; IL-15 conditions
  yield and viability of the process: significantly augmented

Reference: US11981921B2, “TIL expansion processes using specific cytokine combinations and/or AKTi treatment” (Iovance Biotherapeutics, Inc., priority 2022, dated 2024)
